From patent US20230097866A1, “BACTERIAL TOPOISOMERASE INHIBITORS DERIVED FROM ISOMANNIDE” (Ohio State Innovation Foundation, priority 2020, published 2023)
Values after ≈ are worked out from the molar mass of the structure shown. Like-named read-outs stand apart in the source and are kept apart here.

Legend:
[1] = target: T1, Nav1.5 Late Current Human Ion Channel (Homo sapiens, UniProt Q14524); format: cell-based; conditions: in presence of 30 nM ATXII
T1 construct: expressed in transfected cells
Text: (§1) Early drug discovery programs commonly assess hERG inhibition as the only indicator of potential cardiovascular safety concerns. Researchers have recently recommended a more rigorous evaluation of multiple cardiac ion channels to provide a more comprehensive cardiovascular risk assessment (Fermini, B., et al., A New Perspective in the Field of Cardiac Safety Testing through the Comprehensive In Vitro Proarrhythmia Assay Paradigm. J. Biomolec. Screening 2016, 21, 1-11). Given the promising initial results for 6, further evaluation was undertaken (in duplicate) in a Comprehensive in vitro Proarrhythmia Assay (CiPA) eight assay panel run on the QPatch HT (Sophion, Denmark) automated patch clamp system at three concentrations (3, 30, and 100 μM). All data were filtered for seal quality, seal drop, and current amplitude. A stock solution of the test compound at 30 mM concentration was prepared in DMSO.
The parameters measured were the maximum inward current (charge) evoked on stepping to −15mV from the test pulse in the presence of 30 nM ATXII. The peak and ramp current (charge) amplitude was calculated before and after compound addition and the amount of current (charge) was assessed by dividing the Test compound current (charge) by the Control current (charge). Control is the mean hNav1.5 late current (charge) collected 15 seconds at the end of the control (30 nM ATXII); Test Compound is the mean hNav1.5 current (charge) collected in the presence of test compound and 30 nM ATXII at each concentration. The positive control was ranolizine.

MRSADRL-3161 = experiment: MIC panel (Laboratory Specialists, Inc.), MRSA; format: cell-based; conditions: Staphylococcus aureus; Cmpd. 6; CLSI broth microdilution
USA300 isolate of MRSA = experiment: MIC, CLSI broth microdilution, USA300 MRSA; format: cell-based; conditions: Staphylococcus aureus; CLSI broth microdilution; ciprofloxacin-resistant MRSA; read-out: MIC USA300
hKv4.3/KChIP2 = target: T2, hKv4.3/KChIP2 (Homo sapiens, UniProt Q9UK17); experiment: Kv4.3/KChIP2 QPatch CiPA assay; format: cell-based; conditions: mean, duplicate
T2 construct: expressed in transfected cells
T2 sequence (Q9UK17 1-655): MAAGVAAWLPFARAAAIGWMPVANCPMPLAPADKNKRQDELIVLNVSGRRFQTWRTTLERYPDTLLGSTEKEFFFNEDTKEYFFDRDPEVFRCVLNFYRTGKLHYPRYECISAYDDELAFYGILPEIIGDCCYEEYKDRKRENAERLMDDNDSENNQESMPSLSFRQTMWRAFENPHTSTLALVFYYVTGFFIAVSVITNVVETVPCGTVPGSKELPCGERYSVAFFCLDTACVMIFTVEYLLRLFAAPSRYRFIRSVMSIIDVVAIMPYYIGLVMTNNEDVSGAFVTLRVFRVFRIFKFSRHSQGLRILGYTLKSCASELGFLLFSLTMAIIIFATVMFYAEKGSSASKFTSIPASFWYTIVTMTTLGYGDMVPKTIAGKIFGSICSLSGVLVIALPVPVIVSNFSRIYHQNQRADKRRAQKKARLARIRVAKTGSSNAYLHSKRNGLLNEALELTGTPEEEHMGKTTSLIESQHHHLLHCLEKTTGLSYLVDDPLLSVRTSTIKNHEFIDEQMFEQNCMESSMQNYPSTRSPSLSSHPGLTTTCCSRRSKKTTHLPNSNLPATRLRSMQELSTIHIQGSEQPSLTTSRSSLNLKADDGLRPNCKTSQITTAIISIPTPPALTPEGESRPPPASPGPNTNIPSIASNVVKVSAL
T2 sequence (Q9NS61 1-270 partner): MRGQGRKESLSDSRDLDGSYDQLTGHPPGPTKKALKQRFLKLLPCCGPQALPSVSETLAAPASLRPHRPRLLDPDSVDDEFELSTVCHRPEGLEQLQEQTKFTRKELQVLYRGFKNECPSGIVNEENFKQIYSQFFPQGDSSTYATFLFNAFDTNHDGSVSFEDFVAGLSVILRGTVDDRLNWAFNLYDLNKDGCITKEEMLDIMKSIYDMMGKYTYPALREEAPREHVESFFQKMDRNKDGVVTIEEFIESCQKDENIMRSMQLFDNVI
Text: as §1
The parameters measured were the maximum outward current evoked on stepping to 40 mV from the test pulse. The peak current amplitude was calculated before and after compound addition and the amount of block was assessed by dividing the Test compound current amplitude by the Control current amplitude. Control is the mean hKv4.3/KChIP2 current amplitude collected 15 seconds at the end of the control; Test Compound is the mean hKv4.3/KChIP2 current amplitude peak and end collected in the presence of test compound at each concentration. The positive control was flecainide.

Histamine H2 = Histamine H2 (Homo sapiens, UniProt P25021); experiment: Off-target safety panel, Histamine H2; format: binding; conditions: duplicate, read-out: % Inhibition at 100 μM conc., Histamine H2
Description: Potential off-target pharmacology for compound 6 was also evaluated by screening in duplicate against a panel (Bowes, J., et al., Reducing Safety-Related Drug Attrition: The Use of in vitro Pharmacological Profiling. Nat. Rev. Drug Disc. 2012, 11, 909-922) of 44 receptors, enzymes, etc. Of the 44 potential targets, only five were inhibited by >50% at a concentration of 100 μM (Table 7).

in vitro = in vitro ADME; conditions: pH 7.4, 1 μM, read-out: microsomal half-life
Description: The test compound at 1 μM was pre-incubated with pooled liver microsomes in phosphate buffer (pH 7.4) for 5 minutes in a 37° C. shaking water bath. The reaction was initiated by adding NADPH-generating mixture (NADP+, glucose-6-phospate, glucose-6-phosphate dehydrogenase) and incubated for 0, 15, 30, 45, and 60 minutes. The reaction was stopped by transferring aliquots of the incubation mixture to acetonitrile/methanol. Samples were centrifuged, and supernatants analyzed by LCMS. The half-life was calculated from the slope of the initial linear range of the logarithmic curve of compound remaining %) vs. time, assuming first order kinetics. In addition, the intrinsic clearance (Clint) was calculated from the half-life.

[2] = read-out: % Inhibition Kv4.3 (end current)
[3] = read-out: % Inhibition Kv4.3 (peak current)

T1 sequence (Q14524 whole entry): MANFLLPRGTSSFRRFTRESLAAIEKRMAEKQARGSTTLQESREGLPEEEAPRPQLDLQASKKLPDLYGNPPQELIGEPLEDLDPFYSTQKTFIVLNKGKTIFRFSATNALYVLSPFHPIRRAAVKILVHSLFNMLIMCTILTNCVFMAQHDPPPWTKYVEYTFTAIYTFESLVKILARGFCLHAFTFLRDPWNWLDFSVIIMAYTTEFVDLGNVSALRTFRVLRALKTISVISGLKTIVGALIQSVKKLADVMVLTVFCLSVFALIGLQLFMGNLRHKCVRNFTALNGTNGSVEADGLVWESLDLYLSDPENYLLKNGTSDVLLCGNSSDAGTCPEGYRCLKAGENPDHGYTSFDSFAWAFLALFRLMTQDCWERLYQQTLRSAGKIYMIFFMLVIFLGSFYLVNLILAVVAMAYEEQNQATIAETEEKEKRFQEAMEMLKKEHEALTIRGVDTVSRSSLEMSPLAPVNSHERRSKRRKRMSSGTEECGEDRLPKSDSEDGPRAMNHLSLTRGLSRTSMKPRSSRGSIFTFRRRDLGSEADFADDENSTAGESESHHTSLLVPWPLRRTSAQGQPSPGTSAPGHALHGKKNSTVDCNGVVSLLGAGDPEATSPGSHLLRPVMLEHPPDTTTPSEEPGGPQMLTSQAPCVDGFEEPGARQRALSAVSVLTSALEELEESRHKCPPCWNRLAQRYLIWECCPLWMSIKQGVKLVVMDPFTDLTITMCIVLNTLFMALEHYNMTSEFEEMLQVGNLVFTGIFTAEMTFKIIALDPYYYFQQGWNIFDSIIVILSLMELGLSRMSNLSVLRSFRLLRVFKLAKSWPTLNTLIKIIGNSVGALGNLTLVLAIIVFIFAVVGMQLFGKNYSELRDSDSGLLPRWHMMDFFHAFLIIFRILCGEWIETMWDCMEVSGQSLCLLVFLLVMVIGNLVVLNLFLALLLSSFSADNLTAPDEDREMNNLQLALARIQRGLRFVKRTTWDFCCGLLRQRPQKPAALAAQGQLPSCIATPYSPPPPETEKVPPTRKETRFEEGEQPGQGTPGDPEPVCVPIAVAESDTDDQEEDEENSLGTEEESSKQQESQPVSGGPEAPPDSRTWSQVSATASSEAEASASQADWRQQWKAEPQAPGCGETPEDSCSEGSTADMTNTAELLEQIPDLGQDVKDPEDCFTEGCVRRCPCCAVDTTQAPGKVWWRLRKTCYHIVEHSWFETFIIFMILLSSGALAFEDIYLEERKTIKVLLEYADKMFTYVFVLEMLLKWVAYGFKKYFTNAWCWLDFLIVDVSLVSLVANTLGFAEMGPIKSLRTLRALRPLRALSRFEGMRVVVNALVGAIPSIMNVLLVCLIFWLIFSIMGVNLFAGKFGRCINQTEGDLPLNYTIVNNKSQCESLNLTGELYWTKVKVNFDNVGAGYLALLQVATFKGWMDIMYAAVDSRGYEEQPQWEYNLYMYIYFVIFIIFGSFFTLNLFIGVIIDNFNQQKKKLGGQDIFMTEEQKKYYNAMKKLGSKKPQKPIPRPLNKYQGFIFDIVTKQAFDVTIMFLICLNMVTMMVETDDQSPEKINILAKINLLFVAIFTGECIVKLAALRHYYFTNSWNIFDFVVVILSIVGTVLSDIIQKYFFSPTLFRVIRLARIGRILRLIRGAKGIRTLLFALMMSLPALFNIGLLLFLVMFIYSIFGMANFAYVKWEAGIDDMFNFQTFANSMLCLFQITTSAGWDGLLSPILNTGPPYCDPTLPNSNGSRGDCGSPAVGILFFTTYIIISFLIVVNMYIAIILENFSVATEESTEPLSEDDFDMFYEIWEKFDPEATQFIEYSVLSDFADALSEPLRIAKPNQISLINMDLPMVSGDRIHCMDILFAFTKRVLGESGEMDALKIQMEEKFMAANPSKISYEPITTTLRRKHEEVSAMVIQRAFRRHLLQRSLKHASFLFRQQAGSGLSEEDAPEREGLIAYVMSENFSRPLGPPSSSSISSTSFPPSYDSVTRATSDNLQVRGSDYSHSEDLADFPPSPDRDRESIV
Chain of Histamine H2 (P25021 whole entry): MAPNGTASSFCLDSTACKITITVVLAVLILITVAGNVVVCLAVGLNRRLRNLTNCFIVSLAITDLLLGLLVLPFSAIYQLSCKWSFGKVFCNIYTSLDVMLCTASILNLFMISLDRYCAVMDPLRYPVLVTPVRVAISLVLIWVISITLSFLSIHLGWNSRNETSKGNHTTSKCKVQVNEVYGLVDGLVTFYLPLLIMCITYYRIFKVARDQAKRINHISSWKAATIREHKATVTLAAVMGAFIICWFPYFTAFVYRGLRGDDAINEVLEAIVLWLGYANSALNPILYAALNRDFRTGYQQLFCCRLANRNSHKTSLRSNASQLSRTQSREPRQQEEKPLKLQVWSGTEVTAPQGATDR

## COc1ccc2ncc(F)c(CC[C@@]3(O)CO[C@@H]4[C@@H](NCc5cc6c(cn5)OCCO6)CO[C@@H]43)c2n1 [Compound 6, (3R, 3aS,6S,6aR)-6-(((2,3-dihydro-[1,4]dioxino[2,36-c]pyridin-7-yl)methyl)amnino)-3-(2-(3-fluoro-6-methoxy-1,5-naphthyridin-4-yl)ethyl)hexahydrofuro[3,2-b]furan-3-ol]
[1]; 3 μM
  % Inhibition Nav1.5 Late (antagonist - inhibition of ATXII EC50 current): 4.3%
[1]; 30 μM
  % Inhibition Nav1.5 Late (antagonist - inhibition of ATXII EC50 current): 19.1%
[1]; 100 μM
  % Inhibition Nav1.5 Late (antagonist - inhibition of ATXII EC50 current): 50.9%
MRSADRL-3161
  MIC: 1 µg/mL (≈ 2.01 µM)
USA300 isolate of MRSA
  MIC: 2 µg/mL (≈ 4.01 µM)
hKv4.3/KChIP2; [2]
  inhibition at 3 µM: -4.4%
  inhibition at 30 µM: -19.6%
  inhibition at 100 µM: 7.1%
hKv4.3/KChIP2; [3]
  inhibition at 3 µM: 11%
  inhibition at 30 µM: 25.1%
  inhibition at 100 µM: 43.6%
Histamine H2
  inhibition at 100 µM: 51%
In vitro; human microsomes
  half-life: 6 min
In vitro; mouse microsomes
  half-life: 3 min
